Reference: BigSolDB 2.1

CC(C)[C@@H](C)[C@@H](O)[C@H](O)[C@@H](C)[C@H]1CC[C@H]2[C@@H]3COC(=O)[C@H]4C[C@H](O)[C@H](O)C[C@]4(C)[C@H]3CC[C@]12C
solubility (mole fraction)
Conditions | 283.15 K | 288.15 K | 293.15 K | 298.15 K | 303.15 K | 308.15 K | 313.15 K | 318.15 K | 323.15 K
in acetone | 0.00144 | 0.00176 | 0.00207 | 0.0024 | 0.00273 | 0.00303 | 0.00334 | 0.00365 | 0.00405
in acetonitrile | 0.000162 | 0.000206 | 0.000258 | 0.000322 | 0.000399 | 0.000491 | 0.0006 | 0.000728 | 0.000879
in ethanol | 0.00219 | 0.00241 | 0.00296 | 0.0032 | 0.00356 | 0.00409 | 0.00476 | 0.00551 | 0.00634
in isopropanol | 0.00136 | 0.00169 | 0.00209 | 0.00256 | 0.00312 | 0.00396 | 0.00464 | 0.00564 | 0.00667
